This data set is described as follows: Viscosity by vertical falling sphere method. The data set is classed as physicochemical. Particulars: room temperature 25±1° C.; 1.0 and 5.0 wt. % in water; compared to the tranexamate hydrochloride salt; FIG. 2. As to the method:
Compositions of tranexamate ester salts with differing counter-ions as shown in Table 5 were prepared as follows. 1) Ingredients A to C were combined based on the weight ratios in Table 5. 2) The mixture was heated with stirring to 80±5° C. until all solids were dissolved. 3) The homogeneous mixture was removed from the heat and allowed to cool to room temperature (25±5° C.).
The viscosity at room temperature (25±1° C.) of Examples 13-16 was determined by the method of the vertical falling sphere using the equation μ=[2 (ρs−ρl) g a^2 ]/9v, where μ=dynamic viscosity, ρs=density of the sphere, ρl=density of the test material (Examples 13-16), g=standard gravity, a=radius of the sphere, and v=velocity of the sphere.
Results are represented in FIG. 2. […] Additionally, the tranexamate sulfonate salt yielded stable and homogeneous compositions not observed with the tranexamate hydrochloride salt (see Examples 1 to 12).

Consider `CCCCCCCCCCCCCCCCOC(=O)C1CCC(CN)CC1.CS(=O)(=O)O` (stereo not shown) [tranexamate sulfonate salt, Cetyl tranexamate mesylate], for which the Viscosity entry was “higher viscosity with increasing concentration”.

The values are drawn from US12497349B2, “Salts of tranexamic acid esters” (Actera Ingredients, Inc., priority 2019, dated 2025).
